Source: patent US10407440B2, “Therapeutic agent for motor disorders” (KYOWA HAKKO KIRIN CO., LTD., priority 2009, dated 2019)

Columns and labels:
[1] = test system: MPTP-treated common marmoset; experiment: Test Example 3: combination with L-DOPA in MPTP-treated common marmoset, motor disability score; format: in vivo
Text: Parkinson's disease is a disease based on the progressive degeneration and loss of dopaminergic neuron in substantia nigra-striatum. In primates, a treatment with MPTP, which is a dopamine neurotoxin, causes selective degeneration and loss of dopaminergic neuron in substantia nigra-striatum and induces symptoms of akinesia, muscle rigidity and the like. The primates treated with MPTP are known as the model of Parkinson's disease [Proceedings of the National Academy of Science USA, vol. 80, p. 4546 (1983)]. In addition, common marmoset belongs to Haplorhini and is known to show the symptoms of Parkinson's disease by MPTP, like other Haplorhini [Neuroscience Letter, vol. 57, p. 37 (1985)]. […] The parkinsonian symptoms were judged using the index described in a previous report [Annales of Neurology, vol. 43, p. 507 (1998)]. All compounds were used as a suspension in 0.5% MC400, 10% aqueous sucrose solution. The subject animal was placed in an observation cage (with locomotor activity measuring apparatus) one day before the test compound administration for preconditioning to the environment. The symptoms of Parkinson's disease were continuously monitored through one-way mirror and disability score was scored each 10 min for 6 hr.
The locomotor activity was automatically measured using a computer by a measuring apparatus with a photocell.

[2] = biological target: T1, human adenosine A1 receptor (Homo sapiens, UniProt P30542); experiment: Adenosine A1 receptor binding test (3H-DPCPX binding); details: read-out: Inhibitory rate for human adenosine A1 receptor binding (3H-DPCPX binding)
T1 construct: host or cells: CHO cells (membranes)
T1 sequence (P30542 1-326): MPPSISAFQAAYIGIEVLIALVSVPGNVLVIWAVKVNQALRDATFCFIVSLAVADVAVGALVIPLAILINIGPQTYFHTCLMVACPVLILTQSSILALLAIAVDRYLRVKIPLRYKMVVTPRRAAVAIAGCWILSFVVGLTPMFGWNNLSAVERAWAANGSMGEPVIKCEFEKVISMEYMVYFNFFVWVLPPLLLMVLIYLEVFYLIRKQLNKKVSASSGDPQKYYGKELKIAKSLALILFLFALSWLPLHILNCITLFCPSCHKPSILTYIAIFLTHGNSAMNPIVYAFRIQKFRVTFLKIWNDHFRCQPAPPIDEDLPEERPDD
Text: Specifically, for example, human A1 receptor-expressing CHO cell membranes are used, and, as the labeled compound, for example, tritium-labeled DPCPX (1,3-dipropyl-8-cyclopentylxanthine) is used. The amount of non-specific binding can be determined by measuring the ^3H-DPCPX bound radioactivity in the presence of, for example, 100 μmol/L of R(−)-PIA((−)-N^6-2-phenylisopropyl adenosine).

[3] = test system: MPTP-treated common marmoset that developed motor complication; experiment: Test Example 4: combination with L-DOPA in MPTP-treated common marmoset that developed motor complication; format: in vivo; details: for duration (on-time) of anti-parkinsonian activities of L-DOPA / minimum disability score: gavage
Experimental: 10 mg/kg of L-DOPA (containing 2.5 mg/kg of benserazide hydrochloride) was administered by gavage to common marmoset that developed chronic parkinsonian symptoms by treatment with MPTP by the method described in Test Example 3 (MPTP-treated marmoset) twice a day at about 6 hr intervals. L-DOPA was repeatedly administered for more than 3 weeks to induction of motor complication (dyskinesia symptom, wearing-off phenomenon, on-off fluctuation and the like) in MPTP-treated marmoset in addition to parkinsonian symptoms, and the marmoset was used for the test. […] The locomotor activity was automatically measured using a computer by a measuring apparatus with a photocell. […] The subject animal was placed in an observation cage (with locomotor activity measuring apparatus) one day before the test compound administration for preconditioning to the environment. The symptoms of Parkinson's disease were continuously monitored through one-way mirror and disability score was scored each 10 min for 6 hr.

[4] = test system: MPTP-treated common marmoset that developed motor complication; experiment: Test Example 5: influence on dyskinesia in MPTP-treated common marmoset that developed motor complication; format: in vivo; details: L-DOPA alone 1.25, 2.5, 5.0, 7.5 and 10 mg/kg (with benserazide hydrochloride)
Experimental: 10 mg/kg of L-DOPA (containing 2.5 mg/kg of benserazide hydrochloride) was administered to common marmoset that developed chronic parkinsonian symptoms by treatment with MPTP by the method described in Test Example 3 (MPTP-treated marmoset) twice a day at about 6 hr intervals. L-DOPA was repeatedly administered for more than 3 weeks to induction of motor complication (dyskinesia symptom, wearing-off phenomenon, on-off fluctuation and the like) in MPTP-treated marmoset in addition to parkinsonian symptoms, and the marmoset was used for the test. The dyskinesia severity was rating using the rating scale described in a previous report [[…] of Neurology, vol. 43, p. 507 (1998)] as in Test Example 2. […] The subject animal was placed in an observation cage (with locomotor activity measuring apparatus) one day before the test compound administration for preconditioning to the environment. The dyskinesia symptoms were observed through one-way mirror and scored each 20 min for 6 hr. [table] The locomotor activity was automatically measured using a computer by a measuring apparatus with a photocell.

[5] = 1 mg/kg compound combined with L-DOPA 2.5 mg/kg

SMILES	duration of anti-parkinsonian activity of L-DOPA ([1]; 1 mg/kg compound co-administered orally with L-DOPA 2.5, 5.0, 7.5 and 10.0 mg/kg)	maximum effects of L-DOPA (minimum motor disability score) ([1]; 1 mg/kg compound co-administered orally with L-DOPA 2.5, 5.0, 7.5 and 10.0 mg/kg, versus L-DOPA alone)	action expression time (on-time) ([1]; 1 mg/kg compound plus 10 mg/kg L-DOPA orally, compared to 10 mg/kg L-DOPA alone)	inhibition at 0.1 µM [2]	duration (on-time) of anti-parkinsonian activities of L-DOPA [3, 5]	minimum disability score [3, 5]	parkinsonian symptoms ([1]; L-DOPA alone 2.5, 5.0, 7.5 and 10.0 mg/kg (with 1/4 amount benserazide hydrochloride))	duration (on-time) of anti-parkinsonian activities of L-DOPA ([3]; L-DOPA 2.5 mg/kg alone)	minimum disability score ([3]; L-DOPA 2.5 mg/kg alone)	parkinsonian symptoms ([3]; L-DOPA alone 2.5 mg/kg or 10 mg/kg (with benserazide hydrochloride))	dyskinesia [4]
Cc1ccc(C(=O)Nc2nc(-c3ccco3)c(C(=O)C3CCOCC3)s2)cn1 [Compound (IC)]	prolonged the anti-parkinsonian activity of L-DOPA	enhanced maximum effects of L-DOPA alone	increased	29%	about 150 min	3.83±0.17	–	–	–	–	–
N[C@@H](Cc1ccc(O)c(O)c1)C(=O)O [L-DOPA]	–	–	–	–	–	–	decreased within increasement of the dosage	about 50 min	5.33±0.80	decreased with the increasement of dosage	dyskinesia was induced
